Assay results published in ChEMBL document CHEMBL3885861, “Open TG-GATES”.

Species on record: Rattus norvegicus
Test: Open TG-GATES - Regimen: Daily Repeat
Type: toxicity, organism-based, Sprague-Dawley
Parameters: regimen Daily Repeat, gender Male, age 6 weeks
Conditions: in vivo, iv, route intravenous injection; for APTT / Bas / Eos / Fbg / Hb / Ht / Lym / MCH / MCHC / MCV / Mono / Neu / PT / Plat / RBC / Ret / WBC: tissue Blood; for KIDNEY_L / KIDNEY_R / KIDNEY_TOTAL: tissue Kidney; for LIVER: tissue Liver; for A/G / ALP / ALT / AST / BUN / CRE / Ca / Cl / DBIL / GLC / IP / K / LDH / Na / PL / RALB / TBIL / TC / TG / TP / gamma-GTP: tissue Plasma
[1] = 6 mg/kg, 72 h, dose level Middle, time 3 day
[2] = 6 mg/kg, […], dose level Middle, time 7 day
[3] = 6 mg/kg, […], dose level Middle, time 14 day
[4] = 6 mg/kg, […], dose level Middle, time 28 day
[5] = 20 mg/kg, 72 h, dose level High, time 3 day
[6] = 20 mg/kg, […], dose level High, time 7 day
[7] = 20 mg/kg, […], dose level High, time 14 day
[8] = 20 mg/kg, […], dose level High, time 28 day

NCCBr [BROMOETHANAMINE]
TERMINAL_BW [1]: 227.7 g
APTT [1]: 22.4 s
Bas [1]: 0%
Eos [1]: 1%
Fbg [1]: 318.4 mg/dL
Hb [1]: 13.8 g/dL
Ht [1]: 40%
Lym [1]: 83.6%
MCH [1]: 21.2 pg
MCHC [1]: 34.4%
MCV [1]: 61.7 fL
Mono [1]: 2%
Neu [1]: 12.2%
PT [1]: 16.2 s
Plat [1]: 121.7 x10_4/uL
RBC [1]: 648 x10_4/ul
Ret [1]: 4.6%
WBC [1]: 75.6 x10_2/uL
KIDNEY_L [1]: 1 g
KIDNEY_R [1]: 1 g
KIDNEY_TOTAL [1]: 2 g
LIVER [1]: 10.9 g
A/G [1]: 1.3
ALP [1]: 1767.4 IU/L
ALT [1]: 39.6 IU/L
AST [1]: 69 IU/L
BUN [1]: 15.6 mg/dL
CRE [1]: 0.2 mg/dL
Ca [1]: 10.9 mg/dL
Cl [1]: 106.6 meq/L
DBIL [1]: 0 mg/dL
GLC [1]: 169 mg/dL
IP [1]: 6.9 mg/dL
K [1]: 4.6 meq/L
LDH [1]: 209.6 IU/L
Na [1]: 142 meq/L
PL [1]: 138.8 mg/dL
RALB [1]: 3.1 g/dL
TBIL [1]: 0.006 mg/dL
TC [1]: 71 mg/dL
TG [1]: 113.8 mg/dL
TP [1]: 5.6 g/dL
gamma-GTP [1]: 1.4 IU/L
TERMINAL_BW [2]: 261 g
TERMINAL_BW [3]: 314.5 g
TERMINAL_BW [4]: 361.2 g
APTT [2]: 23.5 s
Bas [2]: 0%
Eos [2]: 1.4%
Fbg [2]: 282.6 mg/dL
Hb [2]: 13.9 g/dL
Ht [2]: 40.1%
Lym [2]: 83%
MCH [2]: 21.6 pg
MCHC [2]: 34.7%
MCV [2]: 62.2 fL
Mono [2]: 2.8%
Neu [2]: 11.8%
PT [2]: 15.8 s
Plat [2]: 123.4 x10_4/uL
RBC [2]: 645 x10_4/ul
Ret [2]: 3.9%
WBC [2]: 116 x10_2/uL
APTT [3]: 22.4 s
Bas [3]: 0%
Eos [3]: 1.2%
Fbg [3]: 327.4 mg/dL
Hb [3]: 13.8 g/dL
Ht [3]: 40.3%
Lym [3]: 85.2%
MCH [3]: 20.4 pg
MCHC [3]: 34.3%
MCV [3]: 59.5 fL
Mono [3]: 2%
Neu [3]: 10.6%
PT [3]: 15.5 s
Plat [3]: 132 x10_4/uL
RBC [3]: 676.6 x10_4/ul
Ret [3]: 3.8%
WBC [3]: 119.2 x10_2/uL
APTT [4]: 26 s
Bas [4]: 0%
Eos [4]: 1.4%
Fbg [4]: 312.2 mg/dL
Hb [4]: 15.8 g/dL
Ht [4]: 42.9%
Lym [4]: 84.2%
MCH [4]: 20.4 pg
MCHC [4]: 36.9%
MCV [4]: 55.4 fL
Mono [4]: 1.4%
Neu [4]: 12.2%
PT [4]: 16.4 s
Plat [4]: 110.1 x10_4/uL
RBC [4]: 775.2 x10_4/ul
Ret [4]: 2.2%
WBC [4]: 90.4 x10_2/uL
KIDNEY_L [2]: 1.1 g
KIDNEY_R [2]: 1.1 g
KIDNEY_TOTAL [2]: 2.1 g
KIDNEY_L [3]: 1.3 g
KIDNEY_R [3]: 1.2 g
KIDNEY_TOTAL [3]: 2.5 g
KIDNEY_L [4]: 1.3 g
KIDNEY_R [4]: 1.4 g
KIDNEY_TOTAL [4]: 2.7 g
LIVER [2]: 12.5 g
LIVER [3]: 14.7 g
LIVER [4]: 15.7 g
A/G [2]: 1.2
ALP [2]: 1617 IU/L
ALT [2]: 39.4 IU/L
AST [2]: 71.4 IU/L
BUN [2]: 17.6 mg/dL
CRE [2]: 0.2 mg/dL
Ca [2]: 10.8 mg/dL
Cl [2]: 107.4 meq/L
DBIL [2]: 0 mg/dL
GLC [2]: 182.2 mg/dL
IP [2]: 6.9 mg/dL
K [2]: 4.5 meq/L
LDH [2]: 204 IU/L
Na [2]: 141 meq/L
PL [2]: 140 mg/dL
RALB [2]: 3 g/dL
TBIL [2]: 0.002 mg/dL
TC [2]: 72.4 mg/dL
TG [2]: 119 mg/dL
TP [2]: 5.5 g/dL
gamma-GTP [2]: 1.2 IU/L
A/G [3]: 1.1
ALP [3]: 1499 IU/L
ALT [3]: 41 IU/L
AST [3]: 69 IU/L
BUN [3]: 18.2 mg/dL
CRE [3]: 0.2 mg/dL
Ca [3]: 10.8 mg/dL
Cl [3]: 107 meq/L
DBIL [3]: 0 mg/dL
GLC [3]: 170.2 mg/dL
IP [3]: 7.1 mg/dL
K [3]: 4.4 meq/L
LDH [3]: 142.6 IU/L
Na [3]: 143.2 meq/L
PL [3]: 145.8 mg/dL
RALB [3]: 3 g/dL
TBIL [3]: 0.004 mg/dL
TC [3]: 77.6 mg/dL
TG [3]: 98.2 mg/dL
TP [3]: 5.8 g/dL
gamma-GTP [3]: 2.8 IU/L
A/G [4]: 1.1
ALP [4]: 1273.6 IU/L
ALT [4]: 32.8 IU/L
AST [4]: 55 IU/L
BUN [4]: 18.2 mg/dL
CRE [4]: 0.2 mg/dL
Ca [4]: 10.5 mg/dL
Cl [4]: 106.4 meq/L
DBIL [4]: 0 mg/dL
GLC [4]: 185.8 mg/dL
IP [4]: 6.5 mg/dL
K [4]: 4.1 meq/L
LDH [4]: 118 IU/L
Na [4]: 145 meq/L
PL [4]: 131.8 mg/dL
RALB [4]: 3.2 g/dL
TBIL [4]: 0.004 mg/dL
TC [4]: 65.2 mg/dL
TG [4]: 112.2 mg/dL
TP [4]: 6.2 g/dL
gamma-GTP [4]: 2.6 IU/L
TERMINAL_BW [5]: 210.6 g
APTT [5]: 22.4 s
Bas [5]: 0%
Eos [5]: 1%
Fbg [5]: 351 mg/dL
Hb [5]: 13.7 g/dL
Ht [5]: 39.6%
Lym [5]: 83.4%
MCH [5]: 21.2 pg
MCHC [5]: 34.5%
MCV [5]: 61.3 fL
Mono [5]: 3%
Neu [5]: 11%
PT [5]: 16.3 s
Plat [5]: 130.9 x10_4/uL
RBC [5]: 646.2 x10_4/ul
Ret [5]: 2.4%
WBC [5]: 69.9 x10_2/uL
KIDNEY_L [5]: 1 g
KIDNEY_R [5]: 1 g
KIDNEY_TOTAL [5]: 2 g
LIVER [5]: 9.3 g
A/G [5]: 1.2
ALP [5]: 1285.8 IU/L
ALT [5]: 37 IU/L
AST [5]: 63.2 IU/L
BUN [5]: 16 mg/dL
CRE [5]: 0.2 mg/dL
Ca [5]: 10.6 mg/dL
Cl [5]: 109.2 meq/L
DBIL [5]: 0.004 mg/dL
GLC [5]: 160 mg/dL
IP [5]: 5.8 mg/dL
K [5]: 4.5 meq/L
LDH [5]: 206.4 IU/L
Na [5]: 141.6 meq/L
PL [5]: 140 mg/dL
RALB [5]: 3 g/dL
TBIL [5]: 0.014 mg/dL
TC [5]: 77.8 mg/dL
TG [5]: 53.4 mg/dL
TP [5]: 5.6 g/dL
gamma-GTP [5]: 1.4 IU/L
TERMINAL_BW [6]: 227.1 g
TERMINAL_BW [7]: 262.8 g
TERMINAL_BW [8]: 323 g
APTT [6]: 23 s
Bas [6]: 0%
Eos [6]: 0.8%
Fbg [6]: 332.6 mg/dL
Hb [6]: 14.1 g/dL
Ht [6]: 40.5%
Lym [6]: 86.8%
MCH [6]: 20.9 pg
MCHC [6]: 34.8%
MCV [6]: 59.9 fL
Mono [6]: 2.4%
Neu [6]: 8.6%
PT [6]: 15.9 s
Plat [6]: 140.5 x10_4/uL
RBC [6]: 676 x10_4/ul
Ret [6]: 1.6%
WBC [6]: 87 x10_2/uL
APTT [7]: 24.6 s
Bas [7]: 0%
Eos [7]: 0.2%
Fbg [7]: 332.6 mg/dL
Hb [7]: 14.1 g/dL
Ht [7]: 40.7%
Lym [7]: 87.4%
MCH [7]: 20.1 pg
MCHC [7]: 34.6%
MCV [7]: 58.1 fL
Mono [7]: 2%
Neu [7]: 9.2%
PT [7]: 15.6 s
Plat [7]: 134.2 x10_4/uL
RBC [7]: 700.8 x10_4/ul
Ret [7]: 2.7%
WBC [7]: 76.8 x10_2/uL
APTT [8]: 25.9 s
Bas [8]: 0%
Eos [8]: 1.4%
Fbg [8]: 333.4 mg/dL
Hb [8]: 14.8 g/dL
Ht [8]: 40.7%
Lym [8]: 79%
MCH [8]: 19.9 pg
MCHC [8]: 36.3%
MCV [8]: 54.8 fL
Mono [8]: 3%
Neu [8]: 15.6%
PT [8]: 16.1 s
Plat [8]: 120.7 x10_4/uL
RBC [8]: 744 x10_4/ul
Ret [8]: 3.3%
WBC [8]: 65.8 x10_2/uL
KIDNEY_L [6]: 1.1 g
KIDNEY_R [6]: 1.1 g
KIDNEY_TOTAL [6]: 2.2 g
KIDNEY_L [7]: 1.2 g
KIDNEY_R [7]: 1.2 g
KIDNEY_TOTAL [7]: 2.4 g
KIDNEY_L [8]: 1.4 g
KIDNEY_R [8]: 1.4 g
KIDNEY_TOTAL [8]: 2.8 g
LIVER [6]: 11.1 g
LIVER [7]: 13.6 g
LIVER [8]: 18.5 g
A/G [6]: 1.1
ALP [6]: 1454.4 IU/L
ALT [6]: 31.6 IU/L
AST [6]: 53.4 IU/L
BUN [6]: 15.6 mg/dL
CRE [6]: 0.2 mg/dL
Ca [6]: 10.7 mg/dL
Cl [6]: 109 meq/L
DBIL [6]: 0 mg/dL
GLC [6]: 174.2 mg/dL
IP [6]: 7 mg/dL
K [6]: 4.3 meq/L
LDH [6]: 176.6 IU/L
Na [6]: 141.2 meq/L
PL [6]: 147.4 mg/dL
RALB [6]: 3 g/dL
TBIL [6]: 0.006 mg/dL
TC [6]: 75.2 mg/dL
TG [6]: 98.6 mg/dL
TP [6]: 5.7 g/dL
gamma-GTP [6]: 1.6 IU/L
A/G [7]: 1.1
ALP [7]: 1344.2 IU/L
ALT [7]: 34.2 IU/L
AST [7]: 49.4 IU/L
BUN [7]: 19.2 mg/dL
CRE [7]: 0.1 mg/dL
Ca [7]: 10.8 mg/dL
Cl [7]: 110.2 meq/L
DBIL [7]: 0 mg/dL
GLC [7]: 170.4 mg/dL
IP [7]: 6.8 mg/dL
K [7]: 4.3 meq/L
LDH [7]: 135.6 IU/L
Na [7]: 144.4 meq/L
PL [7]: 143 mg/dL
RALB [7]: 3.1 g/dL
TBIL [7]: 0.012 mg/dL
TC [7]: 69.2 mg/dL
TG [7]: 93.6 mg/dL
TP [7]: 6 g/dL
gamma-GTP [7]: 2.6 IU/L
A/G [8]: 1
ALP [8]: 1076.6 IU/L
ALT [8]: 39 IU/L
AST [8]: 43 IU/L
BUN [8]: 20.2 mg/dL
CRE [8]: 0.1 mg/dL
Ca [8]: 10.7 mg/dL
Cl [8]: 106.2 meq/L
DBIL [8]: 0 mg/dL
GLC [8]: 178 mg/dL
IP [8]: 7 mg/dL
K [8]: 4.2 meq/L
LDH [8]: 118 IU/L
Na [8]: 144.2 meq/L
PL [8]: 170 mg/dL
RALB [8]: 3.4 g/dL
TBIL [8]: 0.042 mg/dL
TC [8]: 77.6 mg/dL
TG [8]: 143.6 mg/dL
TP [8]: 6.6 g/dL
gamma-GTP [8]: 4 IU/L
